# Measurements published in PubChem BioAssay (NCI).
#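 Exposure lasted 48 hours, with cells grown in 96-well plates and compounds tested at five concentrations. Abbreviation: GI50, concentration required for 50% inhibition of growth. Definition used: TGI = concentration required for complete inhibition of growth.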 Where a SMILES comes first, the peptide text is derived from it. The star is where a group is joined. Cbz = O=C(OCc1ccccc1)*; CH2Cl = ClC*
# Tested on: RXF 393 renal
# Assay: DTP human tumour cell line panel, 48 h
Compound,GI50 [µM],TGI [µM]
O=C(N[C@@H](c1ccc(Cl)c(Cl)c1)C1CNC1)c1ccc2cnccc2c1,0.023,0.191
O=C1OCC2=C1C(c1cccc(Br)c1)c1cc3c(cc1N2CCO)CCC3 (stereo unspecified),0.0263,1.61
Nc1nc(/C=C\c2ccc([N+](=O)[O-])s2)nc(N2CCCC2)n1,3.99,21.1
CC(=O)OC12C=CC(=O)N1c1ccccc1C(=O)O2 (stereo unspecified),–,> 100
Oc1cccnc1[Se],–,> 100
CC(C)Oc1ccc2cc(-c3nn(CC4CCNCC4)c4ncnc(N)c34)ccc2c1,2.78,9.73
COc1cc(F)ccc1-c1ncnc(Nc2cccc(CS(C)(=N)=O)c2)n1 (stereo unspecified),0.239,0.534
CS(=O)(=O)CCNCc1nc(-c2ccc3ncnc(Nc4ccc(OCc5cccc(C(F)(F)F)c5)cc4)c3c2)cs1,5.57,> 25
CC(C)CC(NC(=O)OCc1ccccc1)C(=O)NC(Cc1ccccc1)C(=O)CCl (stereo not drawn) (Cbz-Leu-Phe-CH2Cl; configuration not given here),–,3.3
[Cl][Hg][c]1cc[c]([Hg][Cl])o1,1.41,2.92
CCOC(=O)C(Cc1ccc(CCCC(=O)NCCC(=O)Nc2ccc3nc(C)sc3c2)cc1)C(=O)OCC,36.4,> 100
NCCNc1c2c(c(NCCN)c3[nH]ccc13)C(=O)c1ccccc1C2=O,0.0488,0.525
Cc1c2c(C#N)nccc2c(C)c2c1c1ccccc1n2Cc1ccccc1,–,> 100
COc1cc(Cn2c(-c3ccccc3)c(Cl)c3c2-c2oncc2CC3)cc(OC)c1,5.96,21.5
COc1ccc(-c2nn(-c3ccc(NC(=O)c4ccc(Cl)c(Cl)c4)cc3)cc2-c2ccncc2)cc1Cl,0.804,1.75
O=C(CC1(O)C(=O)N(Cc2ccccc2)c2ccc(F)cc21)c1ccc(C(=O)NCC2CCC3(CC2)OOC2(CCCCC2)OO3)cc1 (stereo unspecified),0.317,0.851
COc1cc2c3c(n(C)c(=O)c2cc1OC)-c1cc2c(cc1/C3=C\CN)OCO2,3.17,> 45.8
CN(C)C(n1cc2c(c1)-c1ccc(Cl)cc1C(c1ccccc1F)=NC2)n1cc2c(c1)-c1ccc(Cl)cc1C(c1ccccc1F)=NC2,–,66.6
COc1ccc(/C=C2/N=C(c3ccccc3)N(c3c(C)n(C)n(-c4ccccc4)c3=O)C2=O)cc1OC,> 100,> 100
C[C@@H]1CC[C@@H]2[C@@H]1[C@H](OC(=O)/C=C/c1ccccc1)[C@]1(C3CCCCC3)C[C@@H](OC(=O)CO)[C@@]2(C)O1,0.0779,3.16
CCn1c2ccccc2c2cc(NC(=O)Nc3ccc([N+](=O)[O-])cc3C)ccc21,1.36,6.27
COc1cccc2c1C(=O)c1c(O)c3c(c(O)c1C2=O)C[C@](O)(C(=O)CO)C[C@H]3O[C@@H]1C[C@@H](NC(=O)CCCCCN(C)C2(c3ccc(F)cc3)CC3CCC2C3)[C@H](O)[C@@H](C)O1 (stereo partly specified),2.71,10.5
CCSc1ncnc2c1ncn2C1OC(CO)C(O)C1O (stereo unspecified),16,> 90.2
O=C(CSc1nc2ccccc2nc1-c1ccccc1)Nc1ccc(F)cc1,18.6,68.5
CC[C@H]1[C@@H]2C=C[C@@H]3[C@H]4C/C=C\C(=O)NCCC[C@@H]5NC(=O)/C(=C(O)/C=C/[C@@H]4C[C@@H]3[C@H]2C[C@H]1C)C5=O,0.236,0.84

# Tested on: UACC-62 melanoma
# Assay: DTP human tumour cell line panel, 48 h
Compound,GI50 [µM],TGI [µM]
O=C(N[C@@H](c1ccc(Cl)c(Cl)c1)C1CNC1)c1ccc2cnccc2c1,0.171,0.866
O=C1OCC2=C1C(c1cccc(Br)c1)c1cc3c(cc1N2CCO)CCC3 (stereo unspecified),0.0223,8.18
Nc1nc(/C=C\c2ccc([N+](=O)[O-])s2)nc(N2CCCC2)n1,1.43,8.67
CC(=O)OC12C=CC(=O)N1c1ccccc1C(=O)O2 (stereo unspecified),–,> 100
Oc1cccnc1[Se],–,> 100
CC(C)Oc1ccc2cc(-c3nn(CC4CCNCC4)c4ncnc(N)c34)ccc2c1,6.41,20.4
COc1cc(F)ccc1-c1ncnc(Nc2cccc(CS(C)(=N)=O)c2)n1 (stereo unspecified),0.361,3.4
CS(=O)(=O)CCNCc1nc(-c2ccc3ncnc(Nc4ccc(OCc5cccc(C(F)(F)F)c5)cc4)c3c2)cs1,> 25,> 25
CC(C)CC(NC(=O)OCc1ccccc1)C(=O)NC(Cc1ccccc1)C(=O)CCl (stereo not drawn) (Cbz-Leu-Phe-CH2Cl; configuration not given here),–,7.82
[Cl][Hg][c]1cc[c]([Hg][Cl])o1,3.46,16.2
CCOC(=O)C(Cc1ccc(CCCC(=O)NCCC(=O)Nc2ccc3nc(C)sc3c2)cc1)C(=O)OCC,26.2,> 69.5
NCCNc1c2c(c(NCCN)c3[nH]ccc13)C(=O)c1ccccc1C2=O,0.0842,0.372
Cc1c2c(C#N)nccc2c(C)c2c1c1ccccc1n2Cc1ccccc1,–,> 100
COc1cc(Cn2c(-c3ccccc3)c(Cl)c3c2-c2oncc2CC3)cc(OC)c1,3.84,31.3
COc1ccc(-c2nn(-c3ccc(NC(=O)c4ccc(Cl)c(Cl)c4)cc3)cc2-c2ccncc2)cc1Cl,1.78,> 38.7
O=C(CC1(O)C(=O)N(Cc2ccccc2)c2ccc(F)cc21)c1ccc(C(=O)NCC2CCC3(CC2)OOC2(CCCCC2)OO3)cc1 (stereo unspecified),2.18,5.61
COc1cc2c3c(n(C)c(=O)c2cc1OC)-c1cc2c(cc1/C3=C\CN)OCO2,0.0731,–
CN(C)C(n1cc2c(c1)-c1ccc(Cl)cc1C(c1ccccc1F)=NC2)n1cc2c(c1)-c1ccc(Cl)cc1C(c1ccccc1F)=NC2,–,> 100
COc1ccc(/C=C2/N=C(c3ccccc3)N(c3c(C)n(C)n(-c4ccccc4)c3=O)C2=O)cc1OC,> 100,> 100
C[C@@H]1CC[C@@H]2[C@@H]1[C@H](OC(=O)/C=C/c1ccccc1)[C@]1(C3CCCCC3)C[C@@H](OC(=O)CO)[C@@]2(C)O1,3.11,10.1
CCn1c2ccccc2c2cc(NC(=O)Nc3ccc([N+](=O)[O-])cc3C)ccc21,5.76,> 100
COc1cccc2c1C(=O)c1c(O)c3c(c(O)c1C2=O)C[C@](O)(C(=O)CO)C[C@H]3O[C@@H]1C[C@@H](NC(=O)CCCCCN(C)C2(c3ccc(F)cc3)CC3CCC2C3)[C@H](O)[C@@H](C)O1 (stereo partly specified),6.56,15.7
CCSc1ncnc2c1ncn2C1OC(CO)C(O)C1O (stereo unspecified),1.48,> 100
O=C(CSc1nc2ccccc2nc1-c1ccccc1)Nc1ccc(F)cc1,48.5,> 100
CC[C@H]1[C@@H]2C=C[C@@H]3[C@H]4C/C=C\C(=O)NCCC[C@@H]5NC(=O)/C(=C(O)/C=C/[C@@H]4C[C@@H]3[C@H]2C[C@H]1C)C5=O,1.66,3.17

# Tested on: EKVX NSCLC
# Assay: DTP human tumour cell line panel, 48 h
Compound,GI50 [µM],TGI [µM]
O=C(N[C@@H](c1ccc(Cl)c(Cl)c1)C1CNC1)c1ccc2cnccc2c1,0.288,16.9
O=C1OCC2=C1C(c1cccc(Br)c1)c1cc3c(cc1N2CCO)CCC3 (stereo unspecified),0.682,19.5
Nc1nc(/C=C\c2ccc([N+](=O)[O-])s2)nc(N2CCCC2)n1,10.8,30
CC(=O)OC12C=CC(=O)N1c1ccccc1C(=O)O2 (stereo unspecified),–,> 100
Oc1cccnc1[Se],–,80.2
CC(C)Oc1ccc2cc(-c3nn(CC4CCNCC4)c4ncnc(N)c34)ccc2c1,13.6,26.9
COc1cc(F)ccc1-c1ncnc(Nc2cccc(CS(C)(=N)=O)c2)n1 (stereo unspecified),1.4,37.2
CS(=O)(=O)CCNCc1nc(-c2ccc3ncnc(Nc4ccc(OCc5cccc(C(F)(F)F)c5)cc4)c3c2)cs1,> 20.4,> 25
CC(C)CC(NC(=O)OCc1ccccc1)C(=O)NC(Cc1ccccc1)C(=O)CCl (stereo not drawn) (Cbz-Leu-Phe-CH2Cl; configuration not given here),–,34.5
[Cl][Hg][c]1cc[c]([Hg][Cl])o1,2.78,28.1
CCOC(=O)C(Cc1ccc(CCCC(=O)NCCC(=O)Nc2ccc3nc(C)sc3c2)cc1)C(=O)OCC,53.7,> 100
NCCNc1c2c(c(NCCN)c3[nH]ccc13)C(=O)c1ccccc1C2=O,1.25,3.91
Cc1c2c(C#N)nccc2c(C)c2c1c1ccccc1n2Cc1ccccc1,–,> 100
